Experimental data reported in patent US20120178815A1, “Compositions of (-)-E-10-OH-NT and Methods for Their Synthesis and Use” (Adolor Corporation, priority 2007, published 2012).

What was measured:
[1] = tested on: Sprague-Dawley rats, forced swim behaviour; assay: Rat Forced Swim Test of depression; assay type: in vivo; conditions: for amount of time spent climbing: 3-30 mg/kg IP
Description: Protocol: Male Sprague-Dawley rats (approximately 200 g) are placed in a tank of room temperature water for a fifteen minute practice swim. Every five seconds during the first five minutes of the practice swim, the rats are rated as immobile (floating with motion needed to keep head above the water), swimming (movement across the swim), or climbing (actively trying to climb out of the tank of water, upward directed movements of the forepaws). The percentage of time the rats spent in each of these responses is calculated.
Approximately 24 h after the practice swim, the rats are treated with vehicle or test compound and placed in the tank for a 5 minute swim. As was the case with the practice swim, the rats are rated as immobile, swimming, or climbing during the test swim and the percentage of time spent in each of these responses is calculated. The data are analyzed by one-way ANOVA with post-hoc analysis to compare the behavioral response after vehicle treatment to the behavioral response after drug treatment for each of the three behavioral responses. The level of significance is set at p<0.05.
The percent of time spent immobile, swimming, and climbing (actively trying to scale the sides of the swim tank) in the test swim is shown in FIGS. 15 A, B, and C.

[2] = molecular target: T1, human dopamine transporter (hDAT) (Homo sapiens, UniProt Q01959); assay: DA transporter competitive binding assay, [3H]BTCP; conditions: for inhibition at 10 µM: read-out: Monoamine Transporter Affinity, DA, % inhib at 10 μM; for Ki: read-out: Monoamine Transporter Affinity, DA, Ki
T1 construct: expressed in transfected cells; host or cells: CHO cells (membranes)
T1 sequence (Q01959 whole entry): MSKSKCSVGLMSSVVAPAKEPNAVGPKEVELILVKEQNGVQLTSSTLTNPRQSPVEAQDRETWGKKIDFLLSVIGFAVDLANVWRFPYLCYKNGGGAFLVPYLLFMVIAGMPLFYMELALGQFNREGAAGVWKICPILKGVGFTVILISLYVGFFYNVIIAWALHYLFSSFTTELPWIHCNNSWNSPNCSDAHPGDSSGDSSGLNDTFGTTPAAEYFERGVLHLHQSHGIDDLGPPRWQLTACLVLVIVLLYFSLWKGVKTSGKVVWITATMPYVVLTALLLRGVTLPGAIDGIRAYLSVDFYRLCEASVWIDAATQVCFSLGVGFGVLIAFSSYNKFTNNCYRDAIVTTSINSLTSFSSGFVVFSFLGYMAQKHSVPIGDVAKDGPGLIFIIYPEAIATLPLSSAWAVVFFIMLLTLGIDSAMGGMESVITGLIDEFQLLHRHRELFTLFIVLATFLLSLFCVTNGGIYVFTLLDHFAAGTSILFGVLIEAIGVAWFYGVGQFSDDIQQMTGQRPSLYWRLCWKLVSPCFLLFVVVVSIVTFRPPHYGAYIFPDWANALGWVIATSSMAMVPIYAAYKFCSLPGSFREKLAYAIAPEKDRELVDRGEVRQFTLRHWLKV
Procedure: For the DA transporter binding assay, [^3H]N-[1-(2-benzo[b]thiophenyl)cyclohexyl]-piperidine ([^3H]BTCP) (4.0 nM) was incubated for 2 hr at 4° C. with membranes prepared from Chinese hamster ovary (CHO) cells heterologously expressing the cloned human dopamine transporter (hDAT). Various concentrations of test compound were added and bound radioactivity was determined by scintillation spectroscopy. Non-specific binding was defined as binding that occurred in the presence of 10 μM BTCP. The Ki values for the various test compounds were determined using standard methods.

[3] = molecular target: T2, human muscarinic receptor M4 (Homo sapiens, UniProt P08173); assay: Muscarinic M4 receptor binding, [3H]4-DAMP; conditions: read-out: Affinity for Muscarinic Receptors, M4, Ki
T2 construct: expressed in transfected cells; host or cells: CHO cells (membranes)
T2 sequence (P08173 1-479): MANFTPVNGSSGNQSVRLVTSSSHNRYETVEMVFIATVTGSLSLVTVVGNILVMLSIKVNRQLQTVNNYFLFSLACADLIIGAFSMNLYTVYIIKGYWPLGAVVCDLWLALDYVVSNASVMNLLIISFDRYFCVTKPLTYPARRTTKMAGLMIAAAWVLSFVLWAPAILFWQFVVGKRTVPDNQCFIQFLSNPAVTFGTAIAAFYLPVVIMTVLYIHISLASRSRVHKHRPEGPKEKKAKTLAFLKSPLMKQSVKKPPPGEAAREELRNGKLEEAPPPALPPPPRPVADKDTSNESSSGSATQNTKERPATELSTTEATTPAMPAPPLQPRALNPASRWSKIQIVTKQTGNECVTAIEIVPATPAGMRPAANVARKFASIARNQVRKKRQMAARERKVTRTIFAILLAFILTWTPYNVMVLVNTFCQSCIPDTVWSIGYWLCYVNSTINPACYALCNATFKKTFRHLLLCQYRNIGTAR
Procedure: (§1) Protocol. […] Bound radioactivity was determined by scintillation spectroscopy. Non-specific binding was defined as the amount of bound radioligand in the presence of 1.0 μM atropine. Radioligand for the M1 receptor was [^3H]pirenzepine (2 nM). Radioligand for the M2 receptor was [^3H]AF-DX384 (2 nM). Radioligand for the M3, M4, and M5 receptors was [^3H]4-DAMP.

[4] = molecular target: T3, human muscarinic receptor M2 (Homo sapiens, UniProt P08172); assay: Muscarinic M2 receptor binding, [3H]AF-DX384; conditions: read-out: Affinity for Muscarinic Receptors, M2, Ki
T3 construct: expressed in transfected cells; host or cells: CHO cells (membranes)
T3 sequence (P08172 1-466): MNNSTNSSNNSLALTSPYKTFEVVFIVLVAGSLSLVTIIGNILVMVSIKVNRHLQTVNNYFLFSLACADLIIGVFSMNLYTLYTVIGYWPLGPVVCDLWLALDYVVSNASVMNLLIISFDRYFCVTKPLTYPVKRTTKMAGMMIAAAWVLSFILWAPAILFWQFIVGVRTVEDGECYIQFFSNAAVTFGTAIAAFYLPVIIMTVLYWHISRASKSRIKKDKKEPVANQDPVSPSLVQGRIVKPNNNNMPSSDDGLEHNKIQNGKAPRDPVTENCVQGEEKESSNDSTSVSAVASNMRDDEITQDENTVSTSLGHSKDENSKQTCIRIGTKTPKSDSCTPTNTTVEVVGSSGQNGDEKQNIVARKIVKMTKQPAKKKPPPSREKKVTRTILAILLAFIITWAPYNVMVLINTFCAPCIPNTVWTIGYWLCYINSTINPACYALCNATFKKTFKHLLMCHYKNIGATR
Procedure: as §1

α2a adrenergic receptor = molecular target: T4, α2a adrenergic receptor (Homo sapiens, UniProt P08913); assay: α2a adrenergic receptor binding, [3H]RX821002; conditions: for inhibition at 10 µM: read-out: α2a adrenergic receptor, % inhib. at 10 μM
T4 construct: expressed in transfected cells; host or cells: CHO cells
T4 sequence (P08913 1-465): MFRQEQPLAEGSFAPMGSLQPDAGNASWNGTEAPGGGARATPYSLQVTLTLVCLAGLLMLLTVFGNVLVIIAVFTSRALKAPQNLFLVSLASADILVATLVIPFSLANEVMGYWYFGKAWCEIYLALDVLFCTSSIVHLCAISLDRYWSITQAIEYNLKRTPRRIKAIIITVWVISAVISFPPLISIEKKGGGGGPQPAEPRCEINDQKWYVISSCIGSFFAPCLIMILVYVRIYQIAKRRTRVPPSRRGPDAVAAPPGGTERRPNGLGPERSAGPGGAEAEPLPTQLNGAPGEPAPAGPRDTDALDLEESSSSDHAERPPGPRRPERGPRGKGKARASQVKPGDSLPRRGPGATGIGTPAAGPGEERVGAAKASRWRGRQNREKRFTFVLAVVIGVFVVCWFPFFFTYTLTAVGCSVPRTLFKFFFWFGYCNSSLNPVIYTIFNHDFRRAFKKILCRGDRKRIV
Procedure: Affinity for the α2a adrenergic receptor was tested using CHO cells heterologously expressing the cloned human receptor that were incubated with [^3H]RX821002 (1.0 nM) in the presence of various concentrations of test compounds for 1 hour at 22° C. Nonspecific binding was determined in the presence of 100 μM (−)-epinephrine. Bound radioactivity was determined by scintillation spectroscopy.

Structure (SMILES)	increase in time spent swimming ([1]; 10 mg/kg IP) [%]	increase in time spent swimming ([1]; 30 mg/kg IP) [%]	amount of time spent climbing [1]	inhibition at 10 µM [2] [%]	Ki [2] [nM]	Ki [3] [nM]	Ki [4] [nM]	inhibition at 10 µM (α2a adrenergic receptor) [%]	Ki (α2a adrenergic receptor; read-out: Affinity at α2a adrenergic receptor, Ki) [nM]	activity in the forced swim test ([1]; doses up to 30 mg/kg IP)
CNCC/C=C1\c2ccccc2C[C@@H](O)c2ccccc21 (stereo in doubt) [(−)-E-10-OH-NT]	64	108	did not alter the amount of time spent climbing	3	> 1000	170	2600	23		
CN(C)CCC=C1c2ccccc2CCc2ccccc21 [AT, amitriptyline, reference compound]	81	147	did not alter the amount of time spent climbing		2100	3.6			570	
CNCCC=C1c2ccccc2CCc2ccccc21 [NT, nortriptyline, reference compound]							220			
CNCC/C=C1\c2ccccc2C[C@H](O)c2ccccc21 (stereo in doubt) [(+)-E-10-OH-NT]				25	> 1000	390	4200	15		not active
